These molecules were tested against T1, human β3 adrenergic receptor (Homo sapiens, UniProt P13945) (assay: cAMP (SPA) response in CHO cells transfected with human β3 adrenergic receptor). Settings: maximal response relative to maximal response of isoproterenol at 10^-5 M.
T1 construct: Full length β3 AR clones (402 amino acids) containing the last 6 amino acids of hβ3-AR are prepared; expressed in transfected cells; host or cells: CHO (Chinese hamster ovary) cells
Format: cell-based
Parameters: key: fraction of maximal isoproterenol (10^-5 M) response
Outline: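 Reactions were stopped with 0.2N HCl and neutralised, and cAMP was measured by SPA. Activity is expressed as percent of the maximal 10^−5 M isoproterenol response.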

T1 sequence (P13945 whole entry): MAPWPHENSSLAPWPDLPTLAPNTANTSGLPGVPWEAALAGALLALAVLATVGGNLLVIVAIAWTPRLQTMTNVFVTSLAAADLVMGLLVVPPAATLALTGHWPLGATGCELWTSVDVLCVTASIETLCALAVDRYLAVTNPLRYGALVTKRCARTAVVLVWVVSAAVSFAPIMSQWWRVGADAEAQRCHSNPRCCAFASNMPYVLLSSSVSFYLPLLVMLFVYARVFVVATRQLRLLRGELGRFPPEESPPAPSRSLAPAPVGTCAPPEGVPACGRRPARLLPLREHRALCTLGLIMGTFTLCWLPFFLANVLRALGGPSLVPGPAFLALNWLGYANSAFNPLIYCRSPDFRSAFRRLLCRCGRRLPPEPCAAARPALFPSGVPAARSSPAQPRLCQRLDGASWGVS

First: O=c1[nH]c2cccc(OC[C@@H](O)CNC3CCN(c4ccc(NS(=O)(=O)c5ccc(Cl)cc5)cc4)CC3)c2[nH]1 [Example 331, 4-Chloro-N-{4-[4-({(2S)-2-hydroxy-3-[(2-oxo-2,3-dihydro-1H-benzimidazol-4-yl)oxy]propyl}amino)-1-piperidinyl]phenyl}benzenesulfonamide]
Second: CCCCc1ccc(S(=O)(=O)Nc2ccc(N3CCC(NC[C@H](O)COc4cccc5[nH]c(=O)[nH]c45)CC3)cc2)cc1 [Example 332, 4-Butyl-N-{4-[4-({(2S)-2-hydroxy-3-[(2-oxo-2,3-dihydro-1H-benzimidazol-4-yl)oxy]propyl}amino)-1-piperidinyl]phenyl}benzenesulfonamide.]
The “IA(β3)” value of the first is lower: 1 for the first, 1.1 for the second.

First: O=c1[nH]c2cccc(OC[C@@H](O)CNC3CCN(c4ccc(NS(=O)(=O)c5cc(Cl)cc(Cl)c5)cc4)CC3)c2[nH]1 [Example 333, 3,5-Dichloro-N-{4-[4-({(2S)-2-hydroxy-3-[(2-oxo-2,3-dihydro-1H-benzimidazol-4-yl)oxy]propyl}amino)-1-piperidinyl]phenyl}benzenesulfonamide]
Second: COc1ccc(S(=O)(=O)Nc2ccc(N3CCC(NC[C@H](O)COc4cccc5[nH]c(=O)[nH]c45)CC3)cc2)cc1OC [Example 359, N-{4-[4-({(2S)-2-Hydroxy-3-[(2-oxo-2,3-dihydro-1H-benzimidazol-4-yl)oxy]-propyl}amino)-1-piperidinyl]phenyl}-3,4-dimethoxybenzenesulfonamide]
The “IA(β3)” value of the first is lower: 0.83 for the first, 0.91 for the second.

Going from `COc1ccc(OC)c(S(=O)(=O)Nc2ccc(N3CCC(NC[C@H](O)COc4cccc5[nH]c(=O)[nH]c45)CC3)cc2)c1` [Example 334, N-{4-[4-({(2S)-2-Hydroxy-3-[(2-oxo-2,3-dihydro-1H-benzimidazol-4-yl)oxy]propyl}-amino)-1-piperidinyl]phenyl}-2,5-dimethoxybenzenesulfonamide] to `COc1ccc(Br)cc1S(=O)(=O)Nc1ccc(N2CCC(NC[C@H](O)COc3cccc4[nH]c(=O)[nH]c34)CC2)cc1` [Example 338, 5-Bromo-N-{4-[4-(f{(2S)-2-hydroxy-3-[(2-oxo-2,3-dihydro-1H-benzimidazol-4-yl)oxy]propyl}amino)-1-piperidinyl]phenyl}-2-methoxybenzenesulfonamide], the “IA(β3)” value rises from 0.91 to 1.

Going from `COc1ccc(OC)c(S(=O)(=O)Nc2ccc(N3CCC(NC[C@H](O)c4ccc(O)c(NS(C)(=O)=O)c4)CC3)cc2)c1` [Example 335, N-(4-{4-[((2R)-2-Hydroxy-2-{4-hydroxy-3-[(methylsulfonyl)amino]phenyl}ethyl)amino]-1-piperidinyl}phenyl)-2,5-dimethoxybenzenesulfonamide] to `CCCCS(=O)(=O)N(CC(=O)OCC)c1ccc(N2CCC(NC[C@H](O)c3ccc(O)c(NS(C)(=O)=O)c3)CC2)cc1` [Example 345], the “IA(β3)” value rises from 0.98 to 1.

First: COc1ccc(Br)cc1S(=O)(=O)N(c1ccc(N2CCC(NC[C@H](O)COc3cccc4[nH]c(=O)[nH]c34)CC2)cc1)S(=O)(=O)c1cc(Br)ccc1OC [Example 337]
Second: CCCCOc1ccc(S(=O)(=O)Nc2ccc(N3CCC(NC[C@H](O)COc4cccc5[nH]c(=O)[nH]c45)CC3)cc2)cc1 [Example 358, 4-Butoxy-N-{4-[4-({(2S)-2-hydroxy-3-[(2-oxo-2,3-dihydro-1H-benzimidazol-4-yl)oxy]propyl}amino)-1-piperidinyl]phenyl}benzenesulfonamide]
The “IA(β3)” value of the first is lower: 0.72 for the first, 1.1 for the second.

Going from `CCCCS(=O)(=O)N(CC(=O)OCc1ccccc1)c1ccc(N2CCC(NC[C@H](O)c3ccc(O)c(NS(C)(=O)=O)c3)CC2)cc1` [Example 342] to `O=C(NCc1ccc(S(=O)(=O)Nc2ccc(N3CCC(NCC(O)c4cccc(O)c4)CC3)cc2)s1)c1ccccc1` (stereo not shown) [Example 349, N-[(5-{[4-(4-{[2-Hydroxy-2-(3-hydroxyphenyl)ethyl]amino}-1-piperidinyl)-anilino]sulfonyl}-2-thienyl)methyl]benzamide], the “IA(β3)” value rises from 1 to 1.26.

First: O=S(=O)(Nc1ccc(N2CCC(NC[C@H](O)COc3ccccc3)CC2)cc1)c1ccc(Oc2ncc(C(F)(F)F)cc2Cl)cc1 [Example 346, 4-{[3-Chloro-5-(trifluoromethyl)-2-pyridinyl]oxy}-N-[4-(4-{[(2S)-2-hydroxy-3-phenoxypropyl]amino}-1-piperidinyl)phenyl]benzenesulfonamide]
Second: O=c1[nH]c2cccc(OC[C@@H](O)CNC3CCN(c4ccc(NS(=O)(=O)c5ccc(Oc6ncc(C(F)(F)F)cc6Cl)cc5)cc4)CC3)c2[nH]1 [Example 350, 4-{[3-Chloro-5-(trifluoromethyl)-2-pyridinyl]oxy}-N-{4-[4-({(2S)-2-hydroxy-3-[(2-oxo-2,3-dihydro-1H-benzimidazol-4-yl)oxy]propyl}amino)-1-piperidinyl]phenyl}-benzenesulfonamide]
The “IA(β3)” value of the first is lower: 0.76 for the first, 1.26 for the second.

First: O=C(NCc1ccc(S(=O)(=O)Nc2ccc(N3CCC(NC[C@H](O)COc4cccc5[nH]c(=O)[nH]c45)CC3)cc2)s1)c1ccccc1 [Example 347, N-{[5-({4-[4-({(2S)-2-Hydroxy-3-[(2-oxo-2,3-dihydro-1H-benzimidazol-4-yl)oxy]propyl}amino)-1-piperidinyl]anilino}sulfonyl)-2-thienyl]methyl}benzamide]
Second: O=C(NCc1ccc(S(=O)(=O)Nc2ccc(N3CCC(NC[C@H](O)COc4ccccc4)CC3)cc2)s1)c1ccccc1 [Example 348]
The “IA(β3)” value of the first is higher: 0.91 for the first, 0.63 for the second.

First: O=S(=O)(Nc1ccc(N2CCC(NCC(O)c3cccc(O)c3)CC2)cc1)c1ccc(Oc2ncc(C(F)(F)F)cc2Cl)cc1 (stereo not shown) [Example 351]
Second: O=[N+]([O-])c1ccc(Oc2c(Cl)cc(S(=O)(=O)Nc3ccc(N4CCC(NCC(O)c5cccc(O)c5)CC4)cc3)cc2Cl)c(Cl)c1 (stereo not shown) [Example 354, 3,5-Dichloro-4-(2-chloro-4-nitrophenoxy)-N-[4-(4-{[2-hydroxy-2-(3-hydroxyphenyl)-ethyl]amino}-1-piperidinyl)phenyl]benzenesulfonamide]
The “IA(β3)” value of the first is higher: 0.76 for the first, 0.73 for the second.

First: O=c1[nH]c2cccc(OC[C@@H](O)CNC3CCN(c4ccc(NS(=O)(=O)c5cc(Cl)c(Oc6ccc([N+](=O)[O-])cc6Cl)c(Cl)c5)cc4)CC3)c2[nH]1 [Example 352, 3,5-Dichloro-4-(2-chloro-4-nitrophenoxy)-N-{4-[4-({(2S)-2-hydroxy-3-[(2-oxo-2,3-dihydro-1H-benzimidazol-4-yl)oxy]propyl}amino)-1-piperidinyl]phenyl}-benzenesulfonamide]
Second: O=[N+]([O-])c1ccc(Oc2c(Cl)cc(S(=O)(=O)Nc3ccc(N4CCC(NC[C@H](O)COc5ccccc5)CC4)cc3)cc2Cl)c(Cl)c1 [Example 353, 3,5-Dichloro-4-(2-chloro-4-nitrophenoxy)-N-[4-(4-{[(2S)-2-hydroxy-3-phenoxypropyl]amino}-1-piperidinyl)phenyl]benzenesulfonamide]
The “IA(β3)” value of the first is higher: 1.02 for the first, 0.97 for the second.

First: O=S(=O)(Nc1ccc(N2CCC(NC[C@@H](O)c3cccc(O)c3)CC2)cc1)c1cccs1 [Example 357, N-[4-(4-{[(2S)-2-Hydroxy-2-(3-hydroxyphenyl)ethyl]amino}-1-piperidinyl)phenyl]-2-thiophenesulfonamide]
Second: COc1ccc(S(=O)(=O)Nc2ccc(N3CCC(NC[C@H](O)COc4ccccc4)CC3)cc2)cc1OC [Example 360, N-[4-(4-{[(2S)-2-Hydroxy-3-phenoxypropyl]amino}-1-piperidinyl)phenyl]-3,4-dimethoxybenzenesulfonamide]
The “IA(β3)” value of the first is higher: 0.87 for the first, 0.54 for the second.

— patent US7022716B2, “Cyclic amine phenyl beta-3 adrenergic receptor agonists” (Wyeth, priority 2000, dated 2006)
